Measured values as given in a compilation of properties of binary mixtures (doi:10.1007/s10953-010-9562-5).

Experiment: xn = mol fraction of the nth substance listed
Conditions: 101 kPa

CCCC[N+]1(C)CCCC1.O=S(=O)([N-]S(=O)(=O)C(F)(F)F)C(F)(F)F + CC1COC(=O)O1
Conditions	electrical conductivity, 253.15 K [S/m]	electrical conductivity, 258.15 K [S/m]	electrical conductivity, 263.15 K [S/m]	electrical conductivity, 268.15 K [S/m]	electrical conductivity, 273.15 K [S/m]	electrical conductivity, 278.15 K [S/m]	electrical conductivity, 283.15 K [S/m]	electrical conductivity, 288.15 K [S/m]	electrical conductivity, 293.15 K [S/m]	viscosity, 293.15 K [mPa·s]
x2 = 0	0.017	0.031	0.045	0.072	–	0.152	0.193	0.249	–	–
x2 = 0.05	0.021	0.037	–	0.082	0.122	0.168	–	0.271	0.328	70.58
x2 = 0.11	–	0.043	0.062	0.094	0.137	0.185	0.234	0.295	0.357	59.09
x2 = 0.16	0.032	–	0.073	0.108	0.154	0.205	–	0.322	0.388	50.53
x2 = 0.21	–	0.061	0.086	0.124	0.173	0.228	0.284	0.351	0.421	44.05
x2 = 0.26	0.049	–	0.102	0.143	–	–	0.313	–	0.458	38.97
x2 = 0.32	0.06	0.086	0.12	0.165	0.22	0.281	0.346	0.42	0.498	34.77
x2 = 0.37	0.074	0.102	–	0.19	0.249	0.312	–	0.459	0.542	31.1
x2 = 0.42	0.09	0.121	0.165	0.218	–	0.347	0.421	0.501	0.588	27.69
x2 = 0.47	–	0.144	0.193	0.251	0.316	0.385	0.464	–	0.638	24.42
x2 = 0.53	0.13	0.169	–	0.288	0.356	0.426	0.51	0.595	–	–
x2 = 0.58	0.155	–	0.261	0.328	0.399	0.47	–	0.645	0.742	18.11
x2 = 0.63	–	0.231	0.3	0.372	0.444	0.516	0.606	0.696	0.794	15.13
x2 = 0.68	0.213	0.266	0.341	–	0.491	0.562	–	0.745	–	–
x2 = 0.74	0.243	0.302	0.381	0.461	–	0.604	0.697	–	–	–
x2 = 0.79	–	0.333	0.415	0.496	0.57	0.637	0.728	–	–	–
x2 = 0.84	0.287	0.353	0.432	0.512	0.585	0.649	0.735	0.821	–	–
x2 = 0.89	–	0.344	–	0.487	0.559	0.621	–	0.776	–	–
x2 = 0.95	0.232	0.274	0.323	0.377	0.445	–	–	0.63	–	–
x2 = 0.97	0.165	0.182	0.232	0.296	0.375	0.414	–	0.528	–	–
